For 9 molecules, ΔA9 min and ΔA10 min results are on record in patent US11384381B2, “Reaction accelerating agent” (Kikkoman Corporation, priority 2016, dated 2022).

For one assay, the system named is CFP-DH4 (A1cOX). The assay is described as follows: HbA1c detection reaction completed with excess A1cOX (Example 4). The settings on record: 0.04% (w/v) compound, 5.3 mg/ml CFP-DH4 (excess), blood cells 10.4% HbA1c, pH 6.5, 37° C.; for ΔA9 min: change in A694-A751 9 minutes after mixing sample with first reagent; for ΔA10 min: change in A694-A751 10 minutes after mixing sample with first reagent, defined as ΔA100%. The assay is classed as biochemical. The procedure:
In this Example, the amount of change in absorbance when an excess amount of A1cOX is used and HbA1c detection reaction was completed is determined.
A reagent for HbA1c measurement having the following composition was prepared, and the measurement of HbA1c was carried out using Bio Majesty JCA-BMI650 (manufactured by JEOL Ltd.).
Blood cells (10.4% HbA1c (NGSP value))
30 mM MOPS-NaOH buffer solution, pH 6.5
0.2% (w/v) n-dodecyl-β-D-maltoside (manufactured by Dojindo Laboratories)
(§1) 10 U/ml peroxidase PEO-301 (Toyobo Co., Ltd.)
(§2) 0.023 mM 10-(carboxymethylaminocarbonyl)-3,7-bis(dimethylamino)phenothiazine sodium (DA-67, manufactured by Wako Pure Chemical Industries, Ltd.)
0.04% (w/v) of the compound of Comparative Example 2 (Wako Pure Chemical Industries, Ltd.), any one compound of the present invention (all from Tokyo Chemical Industry Co., Ltd. except for Acid Yellow 34 from MP Biomedicals, LLC), or compound-free (Comparative Example 1) ion-exchange water as shown in Table 1 (Second Reagent-A) 10 mM MOPS-NaOH buffer solution, pH 6.5 5.3 mg/ml CFP-DH4 (A cOX)
8 μl of the sample diluted 51-fold with ion-exchange water was added to 96 μl of the first reagent-A, and the mixture was incubated at 37° C. for 5 minutes. Then, 24 μl of the second reagent-A was added thereto, and the quantitative reaction of hydrogen peroxide resulting from the oxidation of the β-chain amino terminus of HbA1c was allowed to progress at 37° C. for 5 minutes. The absorbance (A694 and A751) of the reaction solution for light at wavelengths of 694 nm and 751 nm was measured over time for 10 minutes after the mixing of the diluted sample with the first reagent-A to determine the value subtracting of A751 from A694, i.e., the value A694/751. Subsequently, ΔA was calculated by subtracting, from A694/751, the value of (104/128) times A694/751 4.8 minutes after mixing the diluted sample with the first reagent-A. Incidentally, 4.8 minutes after the mixing of the diluted sample with the first reagent-A represents the time immediately before the addition of the second reagent-A. ΔA 9 minutes and 10 minutes after the mixing of the diluted sample with the first reagent (ΔA9min and ΔA10min) are shown in Table 1.
In other words, it can be recognized that the quantitative reaction of HbA1c, i.e., the quantitative reaction of hydrogen peroxide resulting from the oxidation of HbA1c, was completed in 10 minutes after the mixing of the diluted sample with the first reagent-A. Accordingly, in Examples 4 and 5, ΔA10min in each Comparative Example or the present invention was defined as ΔA when 100% of the quantitative reaction of HbA1c progressed under each condition (ΔA100%).

In assay [1] the test system is cholesterol oxidase (CHO-CE). The assay is described as follows: Cholesterol detection reaction completed with excess cholesterol oxidase (Example 12). The assay is classed as biochemical. The settings on record: 0.04% (w/v) compound, 11.6 U/ml CHO-CE (excess), 32 μM cholesterol, pH 7.0, 37° C.; for ΔA9 min: change in A694-A751 9 minutes after mixing; for ΔA10 min: change in A694-A751 10 minutes after mixing, defined as ΔA100%. How it is done: In this Example the amount of change in absorbance is determined when the detection reaction for the substrate cholesterol was completed using an excess amount of cholesterol oxidase (CHO-CE), which is an oxidase.
A reagent for cholesterol measurement having the following composition was prepared, and the measurement of cholesterol using cholesterol oxidase was carried out using Bio Majesty JCA-BM 1650 (manufactured by JEOL Ltd.).
32 μM cholesterol (manufactured by Wako Pure Chemical Industries, Ltd.)
5.0% (v/v) Triton X-100 (manufactured by Wako Pure Chemical Industries, Ltd.)
4.0% (w/v) sodium cholate (manufactured by Wako Pure Chemical Industries, Ltd.)
30 mM MOPS-NaOH buffer solution, pH 7.0
as §1, §2
0.04% (w/v) of the compound of Comparative Example 2, any one compound of the present invention, or compound-free (Comparative Example 1) ion-exchange water as shown in Table 1
10 mM MOPS-NaOH buffer solution, pH 7.0
11.6 U/ml CHO-CE (manufactured by Kikkoman Biochemifa Company)
8 μl of the sample was added to 96 μl of the first reagent-E, and the mixture was incubated at 37° C. for 5 minutes. Then, 24 μl of the second reagent-I was added thereto, and the quantitative reaction of hydrogen peroxide resulting from the oxidation of cholesterol was allowed to progress at 37° C. for 5 minutes. The absorbance (A694 and A751) of the reaction solution for light at wavelengths of 694 nm and 751 nm was measured over time for 10 minutes after the mixing of the sample with the first reagent-E to determine the value of subtraction of A751 from A694, i.e., the value A694/751. Subsequently, ΔA was calculated by subtracting, from A694/751, the value of (104/128) times A694/751 4.8 minutes after the mixing of the sample with the first reagent-E. Incidentally, 4.8 minutes after the mixing of the sample with the first reagent-E represents the time immediately before the addition of the second reagent-I. ΔA 9 minutes and 10 minutes after the mixing of the diluted sample with the first reagent-E (ΔA9min and ΔA10min) are shown in Table 9.
In other words, it can be recognized that the quantitative reaction of cholesterol, i.e., the quantitative reaction of hydrogen peroxide resulting from the oxidation of cholesterol, was completed in 10 minutes after the mixing of the diluted sample with the first reagent-E. Accordingly, in Examples 12 and 13, ΔA10min in each Comparative Example or the present invention was defined as ΔA when 100% of the quantitative reaction of cholesterol progressed under each condition (ΔA100%).

Take Xylene Fast Yellow 2G: in the assay on CFP-DH4 (A1cOX), the ΔA9 min came to 0.015 and the ΔA10 min is listed as 0.015.
Turning to `O=S(=O)([O-])c1cccc(N=Nc2ccc(Nc3ccccc3)cc2)c1.[Na+]` [Acid Yellow 36], in the assay on CFP-DH4 (A1cOX), the ΔA9 min came to 0.011 and the ΔA10 min is on record as 0.011. In assay [1], this molecule displayed a ΔA9 min of 0.033 and a ΔA10 min of 0.033.
Turning to `O=C([O-])c1cc(N=Nc2ccc([N+](=O)[O-])cc2)ccc1O.[Na+]` [Mordant Orange 1], the figures for the ΔA9 min (with CFP-DH4 (A1cOX); in assay [1]) were 0.016 and 0.041, respectively. Also, the ΔA10 min with CFP-DH4 (A1cOX) is reported as 0.016; in assay [1] it was 0.041.
In the assay on CFP-DH4 (A1cOX), `O=C(O)c1cc(N=Nc2ccc3cc(S(=O)(=O)O)ccc3c2)ccc1O.[Na]` [Chrome Yellow] yielded a ΔA9 min of 0.024 and a ΔA10 min of 0.024. Besides, in assay [1], the ΔA9 min is given as 0.071 and the ΔA10 min was 0.072.
With `O=C([O-])c1cc(N=Nc2cccc([N+](=O)[O-])c2)ccc1O.[Na+]` [Alizarin Yellow GG], the ΔA9 min in the assay with CFP-DH4 (A1cOX) is on record as 0.016; in assay [1], 0.039. In addition, the ΔA10 min in the assay on CFP-DH4 (A1cOX) came out at 0.016; in assay [1] it was 0.039.
In the assay on CFP-DH4 (A1cOX), `COc1cc(N=Nc2cccc(S(=O)(=O)[O-])c2)ccc1NC(=O)Nc1ccc(N=Nc2ccc(O)c(C(=O)[O-])c2)cc1.[Na+].[Na+]` [Direct Yellow 44] registered a ΔA9 min of 0.017 and a ΔA10 min of 0.017.
With `Cc1nn(-c2cc(S(=O)(=O)[O-])ccc2Cl)c(O)c1N=Nc1ccccc1.[Na+]` [Acid Yellow 34], in the assay with CFP-DH4 (A1cOX), the ΔA9 min was found to be 0.011 and the ΔA10 min is listed as 0.011. In assay [1], this molecule came in with a ΔA9 min of 0.033 and a ΔA10 min of 0.033.
As to Acid Red 151, the ΔA9 min in the assay with CFP-DH4 (A1cOX) worked out at 0.014; in assay [1], 0.036. Besides, the ΔA10 min with CFP-DH4 (A1cOX) turned out to be 0.014; in assay [1], 0.036.
As to `COc1cc(N=Nc2ccc(N)cc2)c(C)cc1N` [Disperse Diazo Black 3BF], in assay [1], the ΔA9 min came to 0.028 and the ΔA10 min was determined as 0.032.
